Assays:
[1] = Human liver microsome (HLM) metabolic stability assay; assay type: in vitro ADME; settings: human liver microsomes, 1 uM compound, 37° C., 60 min; % hepatic blood flow
Protocol: Assessment of Metabolic Stability
The 5 time point, high-throughput human liver microsome (HLM) metabolic stability assay is designed to determine in vitro compound metabolism. Compounds are incubated with HLMs at a concentration of 1 uM, at 37° C., for a total of 60 min. The percent of compound remaining at 5, 15, 30, and 60 min is used to calculate the t1/2 (min), CLint (mL/min/kg), CLh (mL/min/kg), and % Qh. The assay is based on a 96-well format and can accommodate up to 92 compounds per plate (n=1).
Using the 96-well multi-channel head, the Biomek FX, equipped with a Peltier heating block/shaker, is programmed to accomplish the following steps: • 1. Pipette 175 uL of 1.15 mg/mL microsomes into each of the 96 conical inserts (Analytical Sales and Products, catalog number 96PL05) that fit into the plate of the Peltier heating block/shaker (the incubation plate) • 2. Add 5 uL of compounds from the assay plate to the microsomes and shake the mixture at 600 rpm at 42.1° C. for 10 min (a setting of 42.1° C. on the Peltier is required for the samples to incubate at 37° C.) • 3. After 10 min, prompt the user to add the NADPH plate to the deck and add 20 uL from the NADPH plate to the incubation plate to start the reaction • 4. Add 215 uL of 100%, cold acetonitrile containing an internal standard(s) to a 0 minute, 5 minute, 15 minute, 30 minute, and 60 minute “quench” plate • 5. At 0 min, 5 min, 15 min, 30 min, and 60 min into the incubation, aspirate 12 uL from the incubation mixture and add it to the quench solution to stop the reaction • 6. Add 185 uL HPLC grade water to each well of the 0, 5, 15, 30 and 60 minute quench plates to dilute compounds to the appropriate concentration for the mass spectrometer
After all time points are collected, the quench plates are sealed with 96-well pierceable plate mats or heat sealing foil and centrifuged at 3000 rpm for 15 min to pellet the microsomes.
The plates are analyzed using LC/MS/MS with electron spray ionization (ESI) and the previously determined MRM transitions. The LC method includes the following parameters:
Using an Excel template in Activitybase, the peak areas corresponding to 5, 15, 30 and 60 min are compared to the peak area at 0 min to calculate the percent of remaining compound using the following equation:
Percent compound remaining=(AUC at Time t min/AUC at Time 0 min)×100 where t=0, 5, 15, 30 or 60 min.
Time (min) is plotted against the natural logarithm (Ln) of the percent compound remaining to determine the slope. The slope is used to calculate t1/2 (min) using the equation, t1/2=0.693/slope.
Clint, Intrinsic Clearance

RORγ = target: T1, RORγ (Homo sapiens, UniProt P51449); assay: RORγ Reporter Gene Assay (RGA), luciferase transactivation in transiently transfected HEK 293 cells; assay type: cell-based; settings: HEK 293 cells cotransfected with pGL4.3 luc2P/GAL4UAS and pBIND Gal4DBD hRORC LBD; 20-24 h incubation
T1 construct: expressed in transfected cells; host or cells: HEK 293 cells, transiently cotransfected with pGL4.3 luc2P/GAL4UAS/Hygro reporter
T1 sequence (P51449 269-508 limits assumed): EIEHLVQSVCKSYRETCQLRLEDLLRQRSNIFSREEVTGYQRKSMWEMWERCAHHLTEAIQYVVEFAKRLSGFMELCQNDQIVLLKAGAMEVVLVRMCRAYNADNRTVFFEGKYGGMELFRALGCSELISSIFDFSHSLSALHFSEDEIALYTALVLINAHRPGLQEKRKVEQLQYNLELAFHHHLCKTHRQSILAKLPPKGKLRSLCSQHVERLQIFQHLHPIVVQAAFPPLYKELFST
Protocol: Reporter Gene Assay (RGA)
A nuclear receptor transactivation assay is performed to quantitate the ability of test compounds to inhibit RORγ transactivation of a luciferase reporter. A similar assay is described in: Khan et al., Bioorganic & Medicinal Chemistry Letters 23 (2013), 532-536. The system uses transiently transfected HEK 293 cells cotransfected with two plasmids (pGL4.3, luc2P/GAL4UAS/Hygro, and pBIND, Gal4DBD hRORC LBD1-3). The positive control is co-transiently transfected with both plasmids, and the negative control contains the pGL4.3 promoter sequence. Assays are assembled in 384 well plates where transiently transfected cells and test compound at varying concentrations are incubated for 20-24 h. The next day, assays plates are taken out and equilibrated at RT for 20-30 minutes. Bright-Glo™ Luciferase Assay System is used to detect Luciferase production. After addition of Bright GLO detection reagent, the plates are incubated at RT for 20 minutes. The plates are read on an Envision plate reader to measure luminescence signal. The RLU signal is converted to POC relative to control and blank wells.
Compound Dilution Buffer:
Bright Glo Luciferase Assay System: Promega #E2620
Thaw lysis buffer provided in kit, add 100 mL lysis buffer to substrate powder.

Compound	HLM (% Qh) [1]	IC50 (RORγ)
CC[C@@H](C)n1c(=O)c(NCc2ccc(S(=O)(=O)CC)cn2)nc2c(CO)nc(-c3c(OC)ncnc3C3CC3)nc21 [Example 1]	<24 % Qh	200 nM
Cc1ncnc(C2CC2)c1-c1nc(C)c2nc(NCc3ccc(S(C)(=O)=O)cn3)c(=O)n([C@@H](C)CF)c2n1 [Example 49]	<24 % Qh	4200 nM
CC[C@@H](C)n1c(=O)c(NCc2ccc(S(=O)(=O)CC)cn2)nc2c(C)nc(-c3c(C)ncnc3C3CC3)nc21 [Example 65]	<24 % Qh	135 nM
CCS(=O)(=O)c1cnc(CNc2nc3c(C)nc(-c4c(OC)ncnc4C4CC4)nc3n([C@@H](C)C(F)(F)F)c2=O)nc1 [Example 22]	<24 % Qh	140 nM
CC[C@@H](C)n1c(=O)c(NCc2ccc(S(=N)(=O)CC)cc2)nc2c(C)nc(-c3c(C)ncnc3C3CC3)nc21 (single isomer, unassigned) [Example 26a]	25 % Qh	109 nM
Cc1ncnc(C2CC2)c1-c1nc(C)c2nc(NCc3ccc(S(N)(=O)=O)cn3)c(=O)n([C@@H](C)C3CC3)c2n1 [Example 61]	<24 % Qh	185 nM
Cc1ncnc(C2CC2)c1-c1nc(C)c2nc(NCc3ccc(S(C)(=O)=O)cn3)c(=O)n(C(C)C(F)F)c2n1 (stereo not drawn) [Example 90]	<24 % Qh	235 nM
CCS(=O)(=O)c1ccc(CNc2nc3c(C)nc(-c4c(OC)ncnc4C4CC4)nc3n([C@@H](C)C3CC3)c2=O)cn1 [Example 66]	25 % Qh	64 nM
COc1ncnc(C2CC2)c1-c1nc(C)c2nc(NCc3ccc(S(C)(=N)=O)cc3)c(=O)n([C@@H](C)C(F)(F)F)c2n1 (single isomer, unassigned) [Example 99a]	41 % Qh	230 nM
Cc1ncnc(C2CC2)c1-c1nc(C)c2nc(NCc3ccc(S(C)(=O)=O)nc3)c(=O)n([C@@H](C)C(F)(F)F)c2n1 [Example 20]	29 % Qh	175 nM
CCS(=O)(=O)c1cnc(CNc2nc3c(C)nc(-c4c(C)ncnc4C4CC4)nc3n([C@H](C)C(F)F)c2=O)nc1 [Example 93]	<24 % Qh	185 nM
Cc1ncnc(C2CC2)c1-c1nc(C)c2nc(NCc3ccc(S(C)(=N)=O)cn3)c(=O)n([C@@H](C)C(F)(F)F)c2n1 (single isomer, unassigned) [Example 106b]	28 % Qh	840 nM
CC[C@@H](C)n1c(=O)c(NCc2ccc(S(C)(=O)=O)cn2)nc2c(COC(C)=O)nc(-c3c(C)ncnc3C3CC3)nc21 [Example 47]	56 % Qh	1050 nM
CC[C@H](C)n1c(=O)c(NCc2ncc(S(=O)(=O)CC)cn2)nc2c(C)nc(-c3c(OC)ncnc3C3CC3)nc21 [Example 15]	<24 % Qh	150 nM
CC[C@H](C)n1c(=O)c(NCc2ccc(S(N)(=O)=O)cn2)nc2c(C)nc(-c3c(OC)ncnc3C3CC3)nc21 [Example 81]	<24 % Qh	185 nM
CC[C@H](C)n1c(=O)c(NCc2ccc(S(N)(=O)=O)cn2)nc2c(C)nc(-c3c(C)ncnc3C3CC3)nc21 [Example 85]	<24 % Qh	270 nM
CC[C@@H](C)n1c(=O)c(NCc2ccc(S(=N)(=O)CC)cc2)nc2c(C)nc(-c3c(OC)ncnc3C3CC3)nc21 (single isomer, unassigned) [Example 29b]	48 % Qh	170 nM

Compound	HLM (% Qh) [1]	IC50 (RORγ)
CCS(=N)(=O)c1ccc(CNc2nc3c(C)nc(-c4c(C)ncnc4C4CC4)nc3n([C@@H](C)C(F)(F)F)c2=O)nc1 (single isomer, unassigned) [Example 102a]	<24 % Qh	535 nM
CC[C@@H](C)n1c(=O)c(NCc2ccc(S(C)(=O)=O)cn2)nc2c(C)nc(-c3c(C)ncnc3C3CC3)nc21 [Example 73]	<24 % Qh	155 nM
CC[C@H](C)n1c(=O)c(NCc2ccc(S(C)(=O)=O)cn2)nc2c(C)nc(-c3c(C)ncnc3C3CC3)nc21 [Example 14]	<24 % Qh	115 nM
CC[C@H](C)n1c(=O)c(NCc2ccc(S(C)(=O)=O)nc2)nc2c(C)nc(-c3c(C)ncnc3C3CC3)nc21 [Example 12]	<24 % Qh	140 nM
CCS(=O)(=O)c1ccc(CNc2nc3c(C)nc(-c4c(OC)ncnc4C4CC4)nc3n(CC(C)C)c2=O)cn1 [Example 78]	<24 % Qh	275 nM
CCS(=N)(=O)c1ccc(CNc2nc3c(C)nc(-c4c(C)ncnc4C4CC4)nc3n([C@@H](C)C3CC3)c2=O)nc1 (single isomer, unassigned) [Example 42b]	<24 % Qh	390 nM
Cc1ncnc(C2CC2)c1-c1nc(C)c2nc(NCc3ccc(S(C)(=N)=O)cn3)c(=O)n([C@@H](C)C(F)(F)F)c2n1 (single isomer, unassigned) [Example 106a]	<24 % Qh	1300 nM
CCS(=N)(=O)c1ccc(CNc2nc3c(C)nc(-c4c(C)ncnc4C4CC4)nc3n([C@@H](C)C(F)(F)F)c2=O)nc1 (single isomer, unassigned) [Example 102b]	<24 % Qh	640 nM
COc1ncnc(C2CC2)c1-c1nc(C)c2nc(NCc3ccc(S(N)(=O)=O)cn3)c(=O)n(CC(C)C)c2n1 [Example 70]	<24 % Qh	1300 nM
CC[C@@H](C)n1c(=O)c(NCc2ccc(S(=O)(=O)CC)cn2)nc2c(OC)nc(-c3c(C)ncnc3C3CC3)nc21 [Example 21]	<24 % Qh	1900 nM
CCS(=O)(=O)c1ccc(CNc2nc3c(C)nc(-c4c(C)ncnc4C4CC4)nc3n([C@@H](C)C(F)(F)F)c2=O)cn1 [Example 82]	<24 % Qh	225 nM
CCS(=N)(=O)c1ccc(CNc2nc3c(C)nc(-c4c(C)ncnc4C4CC4)nc3n([C@@H](C)C3CC3)c2=O)cc1 (single isomer, unassigned) [Example 36b]	<24 % Qh	245 nM
CC[C@H](C)n1c(=O)c(NCc2ccc(S(C)(=O)=O)cn2)nc2c(C)nc(-c3c(OC)ncnc3C3CC3)nc21 [Example 13]	<24 % Qh	99 nM
Cc1ncnc(C2CC2)c1-c1nc(C)c2nc(NCc3ccc(S(N)(=O)=O)cn3)c(=O)n([C@@H](C)C(F)(F)F)c2n1 [Example 96]	<24 % Qh	280 nM
CC[C@@H](C)n1c(=O)c(NCc2ccc(S(=O)(=O)CC)cn2)nc2c(COC(C)=O)nc(-c3c(C)ncnc3C3CC3)nc21 [Example 46]	66 % Qh	1050 nM
Cc1ncnc(C2CC2)c1-c1nc(C)c2nc(NCc3ccc(S(C)(=O)=O)cn3)c(=O)n([C@@H](C)C(F)(F)F)c2n1 [Example 18]	55 % Qh	175 nM

Reference: patent publication US10450314B2, “Pteridine derivatives as modulators of ROR gamma” (Boehringer Ingelheim International GmbH, priority 2015, dated 2019)
